Measurements reported in patent publication US20080031868A1, “HUMAN LYSOZYME MEDICINE, ITS MANUFACTURING METHOD AND APPLICATION THEREOF” (priority 2005, published 2008).
Marks after values point to notes of the source that are not given here.

Columns and labels:
[1] = system: Staphylococcus aureus MRSABAA-42; test: Bronchus pneumonia mice infected by Staphylococcus aureus MRSA BAA-42, treated by atomization inspiring; type: in vivo; details: for survival rate (%): 14 days; for bacterial number: mice lung
From the text: A, atomization sucks gene recombinant Human Lysozyme (HLZ) cured bronchus pneumonia mice infected by Staphylococcus aureus MRSABAA-42
Choose the test lawn, after washing with the physiological saline, correcting by McB tubes for comparative tests bacterium solution concentration 2#MCF, turbidity of 2.7×10^11 CFU/ml, diluted with physiological saline separately into 10^−1, 10^−2, 10^−3 bacterium solution, drip the nose to infect for mice respectively (anaesthetize the mice with the pentobarbital first, 30 mg/kg, ip.), 0.05 ml a mouse. Observed the mice body changing, and killed parts of mice after infecting 48 h, fetch the whole lung to tissue homogenate, 10 times diluted by physiological saline, draw 0.1 m1 to MH agar plate surface, to cultivate last night 35° C., Gram staining, test under microscope, and count plate. At the same time recorded the number of death mice, and collect some mice tracheas, bronchus, lung tissue and do pathology tissue observing.
It is called medial lethal dose (LD50) that bacterium amount caused mice appearing lung pharmacology change and 50% died. LD50was used as experimental treatment amount.
Infected mice is divided into 10 groups at random according to the weight, 30 every groups.
Designed dosage: The concentration of recombinant human lysozyme medicine was 15000 u/ml as in clinical atomization therapy. Its dose was 15000 u per time and administrated one time everyday, I.e 0.5 mg per time everyday. The dose was 1.3×10-3 mg a mice (counted by weight of 20 g). […] To ensure the breathing amount of lysozyme, the breathing time were extended for 0.5 hour. Based on 0.5 mg/ml, the concentration of 0.25 mg/ml, 1.0 mg/ml and 2.0 mg/ml were set respectively as treatment dose.
The same group mice were put into the ultrasonic atomizer and then treated with human lysozyme atomized in the compression sprayer (PARL.BOY), twice a day, 5 days in succession.
Every group, from the infected day to calculae, the animal incidence and death were recorded 14 days in succession. Every group collected 2-3 mice and killed them the 14th day after infecting, did bacteriology detection after lung homogenate, killed surplus animal to fetch the trachea, bronchus, fixed in 10% of the formaldehyde solution after weighing, did pathology check.
The bacterial culture: A part of mice were killed after infecting 24 h, fetched the whole lung weighting, added 2 ml degerming PBS solution 10 times diluted, draw 0.1 mL to MH agar plate surface, to cultivate last night 35° C., counted in the cultivation plateform of 30-300 CF, if the two close level tissue fluid is 30-300 CFU, counted the low density (make 3 plateforms at the same time each tissue fluid, calculate the average). Collected 2 mice to do bacterial culture in every group at random in 5, 7, 14 days after administration.
Pathology detection: After dissecting the mice, observed the trachea, bronchus, syncretio of lung, chest wall and membrana pleuralis, the volume of lung and size of lung focus, the lung surface was congested, hydroncus, consolidation and atelectasis by the naked eye. Took out the trachea, bronchus and the whole lung tissue to fixed with 10% of the formaldehyde solution, draw materials.

[2] = system: Staphylococcus aureus MRSABAA-42; test: as above; type: in vivo; details: for accumulative survival number: 30 mice; for survival elevation rate (%): versus infected model group
[3] = 0.25 mg/ml atomization inspired, listed as gene recombinant human lysozyme
[4] = 0.25 mg/ml atomization inspired, listed as recombinant human lysozyme
[5] = 0.25 mg/ml atomization inspired
[6] = 0.25 mg/ml atomization inspired, 14 days
[7] = 0.5 mg/ml atomization inspired, 14 days

With “Human lysozyme: gene recombinant Human Lysozyme (HLZ), active unit 30000 u/mg, batch number 020110; given atomized / as aerosol” the “survival rate (%)” value [1, 3] was 40%, the “survival rate (%)” value [1, 4] was 40% and the “average survival day (day, x ± s)” value [1, 3] was 9.30 ± 4.08 days. For the same substance, the “average survival day (day, x ± s)” value [1, 4] was 9.30 ± 4.08 days, the “Death number(piece)” value ([1]; 0.5 mg/ml atomization inspired, day 7) was 4 piece and the “average survival day (day, x ± s)” value ([1]; 0.5 mg/ml atomization inspired, listed as gene recombinant human lysozyme) was 10.3 ± 3.77 days. For the same substance, the “average survival day (day, x ± s)” value ([1]; 0.5 mg/ml atomization inspired, listed as recombinant human lysozyme) was 3.77 ± 10.3 days, the “survival number” value ([1]; 1 mg/ml atomization inspired, 30 mice) was 17 and the average survive days ([1]; 1 mg/ml atomization inspired, listed as gene recombinant human lysozyme) was 11.2 ± 3.36 days. The average survive days ([1]; 1 mg/ml atomization inspired, listed as recombinant human lysozyme) was 11.23 ± 3.36 days, the “Death number(piece)” value ([1]; 2 mg/ml atomization inspired, day 8) was 2 piece and the “average survival day (day, x ± s)” value ([1]; 2 mg/ml atomization inspired, listed as gene recombinant human lysozyme) was 12.93 ± 2.05 days. For the same substance, the “average survival day (day, x ± s)” value ([1]; 2 mg/ml atomization inspired, listed as recombinant human lysozyme) was 12.93 ± 2.05 days, the “result of pathology detection of the mice lung tissue” value ([1]; high dose 2 mg/ml, 14th day) was “normal basically” and the “result of pathology detection of the mice trachea” value ([1]; high dose 2 mg/ml, 14th day) was “Normal basically”. The “result of pathology detection of the mice lung tissue” value ([1]; low dose 0.5 mg/ml, 14th day) was “bronchiole alveolar wall tissue gently thickening, few”, the “result of pathology detection of the mice lung tissue” value ([1]; medium dose 1 mg/ml, 7th day) was “few monocaryon infiltrating” and the bacterial number ([1]; atomization inspired 0.5 (15000 u/piece), 0 day) was 350 ± 21.5 CFU/mL. For the same substance, the bacterial number ([1]; atomization inspired 1 (30000 u/piece), the 5th day) was 78.30 ± 17.86**^ΔΔ CFU/mL, the bacterial number ([1]; atomization inspired 2 (60000 u/piece), 0 day) was 350 ± 21.5 CFU/mL and the “95% feasible limits of ED50” value ([1]; mice survival over 14 days, Bliss method) was 200 to 900 µg/mL. The “ED50 (median effective dose)” value ([1]; mice survival over 14 days, Bliss method, atomization inspired) was 530 µg/mL, the “average survival day (day, x ± s)” value [2, 5] was 9.30 ± 4.08 days and the accumulative survival number [2, 6] was 12. For the same substance, the “survival rate (%)” value [2, 6] was 40.0%, the “Death number(piece)” value ([2]; 0.25 mg/ml atomization inspired, day 1) was 0 piece and the “Death number(piece)” value ([2]; 0.25 mg/ml atomization inspired, day 2) was 0 piece. For the same substance, the “Death number(piece)” value ([2]; 0.25 mg/ml atomization inspired, day 3) was 1 piece, the “Death number(piece)” value ([2]; 0.25 mg/ml atomization inspired, day 4) was 2 piece and the “Death number(piece)” value ([2]; 0.25 mg/ml atomization inspired, day 5) was 3 piece. The “Death number(piece)” value ([2]; 0.25 mg/ml atomization inspired, day 6) was 3 piece, the “Death number(piece)” value ([2]; 0.25 mg/ml atomization inspired, day 7) was 5 piece and the “Death number(piece)” value ([2]; 0.25 mg/ml atomization inspired, day 8) was 4 piece. The “Death number(piece)” value ([2]; 0.25 mg/ml atomization inspired, day 9) was 0 piece, the “Death number(piece)” value ([2]; 0.25 mg/ml atomization inspired, day 10) was 0 piece and the “Death number(piece)” value ([2]; 0.25 mg/ml atomization inspired, day 11) was 0 piece. For the same substance, the “Death number(piece)” value ([2]; 0.25 mg/ml atomization inspired, day 12) was 0 piece, the “Death number(piece)” value ([2]; 0.25 mg/ml atomization inspired, day 13) was 0 piece and the “Death number(piece)” value ([2]; 0.25 mg/ml atomization inspired, day 14) was 0 piece. The “survival elevation rate (%)” value [2, 5] was 23.3%, the “average survival day (day, x ± s)” value ([2]; 0.5 mg/ml atomization inspired) was 10.3 ± 3.77***^Δ day and the accumulative survival number [2, 7] was 14. The “survival rate (%)” value [2, 7] was 46.7%, the “Death number(piece)” value ([2]; 0.5 mg/ml atomization inspired, day 1) was 0 piece and the “Death number(piece)” value ([2]; 0.5 mg/ml atomization inspired, day 2) was 0 piece. The “Death number(piece)” value ([2]; 0.5 mg/ml atomization inspired, day 3) was 0 piece, the “Death number(piece)” value ([2]; 0.5 mg/ml atomization inspired, day 4) was 2 piece and the “Death number(piece)” value ([2]; 0.5 mg/ml atomization inspired, day 5) was 2 piece. The “Death number(piece)” value ([2]; 0.5 mg/ml atomization inspired, day 6) was 3 piece, the “Death number(piece)” value ([2]; 0.5 mg/ml atomization inspired, day 8) was 5 piece and the “Death number(piece)” value ([2]; 0.5 mg/ml atomization inspired, day 9) was 0 piece. The “Death number(piece)” value ([2]; 0.5 mg/ml atomization inspired, day 10) was 0 piece, the “Death number(piece)” value ([2]; 0.5 mg/ml atomization inspired, day 11) was 0 piece and the “Death number(piece)” value ([2]; 0.5 mg/ml atomization inspired, day 12) was 0 piece. For the same substance, the “Death number(piece)” value ([2]; 0.5 mg/ml atomization inspired, day 13) was 0 piece, the “Death number(piece)” value ([2]; 0.5 mg/ml atomization inspired, day 14) was 0 piece and the “survival elevation rate (%)” value ([2]; 0.5 mg/ml atomization inspired) was 30.0%. The survival rate ([2]; 1 mg/ml atomization inspired, 14 days) was 56.7% and the “average survival day (day, x ± s)” value ([2]; 2 mg/ml atomization inspired) was 12.93 ± 2.05***^ΔΔΔ day.
